Ends that are not written are not given here.
Assays:
[1] = tested on: Mannheimia haemolytica ATCC 33393; assay: MIC, broth dilution; assay type: cell-based; conditions: Table 11; highest concentration 25 μg/mL
How it was run: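 Peptides (95% purity) in 2-fold dilution series were mixed with M. haemolytica diluted to OD 6×10^−4 in cation-adjusted Mueller Hinton broth and incubated standing overnight at 37 °C. MIC was the lowest concentration with no visible growth.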

panel of 7 MRSA strains = assay type: cell-based, Staphylococcus aureus
Protocol: The antibiotic effect of STIP3-29 was bactericidal (FIG. 3). […] Some proportion of bacterial cells escaped treatment, remaining dormant. Indeed, strain-dependent persister cells, capable of escaping a variety of therapeutic agents, have been described for S. aureus^47.
Measurement of bactericidal activity. […] For S. aureus, an overnight culture was diluted to an OD of 5×10^−7 in 2 ml of MH broth supplemented with the appropriate concentration of peptide. Sterile water was added to control cultures. Standing cultures were incubated at 37° C. and 100 μl volume aliquots were removed at 60 min time intervals for 8 h. These aliquots were plated on agar plates to measure the colony forming units (CFUs) that remained viable upon treatment. Control aliquots from the same time intervals were diluted before plating to accurately enumerate increasing CFU counts. Counts were performed from plates that were incubated at 37° C. overnight. A plot of CFU/ml against time was used to illustrate and evaluate the time dependent killing. The same procedure was followed for C. albicans except that YPD broth and a cultivation temperature of 30° C. was employed.

Streptococcus canis = assay: MIC, broth dilution; assay type: cell-based; conditions: clinical isolate
Protocol: (§1) MIC determination. MICs were measured using peptides with 95% purity. For bacterial studies, cation-adjusted Mueller Hinton (MH) broth was used as the growth medium whereas Yeast Peptone Dextrose (YPD; 10 g/L yeast extract, 20 g/L peptone, 20 g/L dextrose) was used for Candida spp. and other yeast. Microorganisms were diluted to an optical density of […] in MH or YPD broth and a 180 μl volume was mixed with 20 μl of peptide arrayed as a 2-fold dilution series in a flat-bottom 96-well microtitre plate. A control was performed using 20 μl of sterile water. Plates were incubated as standing cultures overnight at 37° C.
(§2) Determination of minimum inhibitory concentrations. The MICs were measured for bioactive peptides identified from the initial screen. For bacterial studies, cation-adjusted Mueller Hinton (MH) broth was used as the growth medium whereas YPD was used for C. albicans. Bacterial cultures were diluted to a OD value of 6×10^−4 in MH broth and a 180 μl volume was mixed with 20 μl of peptide arrayed as 2-fold dilution series in a 96-well plate. For the positive control, 20 μl of sterile water was used. Plates were incubated as standing cultures overnight at 37° C. The lowest peptide concentration that resulted no observed microbial growth after an overnight treatment was defined as the MIC.

[2] = tested on: Streptococcus zooepidermicus; assay: MIC, broth dilution; assay type: cell-based; conditions: clinical isolate
Protocol: as §1, §2

S. equorum = assay: MIC, broth dilution; assay type: cell-based; conditions: isolate from a healthy dairy cow
Protocol: as §1, §2

Streptococcus agalactiae = assay: MIC, broth dilution; assay type: cell-based; conditions: clinical isolate
Protocol: as §1, §2

S. epidermidis = assay: MIC, broth dilution; assay type: cell-based; conditions: isolate from a healthy dairy cow
Protocol: as §1, §2

Klebsiella pneumoniae = assay: MIC, broth dilution; assay type: cell-based
Protocol: as §1, §2

Streptococcus equi = assay: MIC, broth dilution; assay type: cell-based; conditions: clinical isolate
Protocol: as §1, §2

[3] = tested on: Enterococcus faecalis ATCC 2912; assay: MIC, broth dilution; assay type: cell-based
Protocol: as §1, §2

[4] = tested on: Mannheimia haemolytica (clinical, disease-causing isolate); assay: MIC, broth dilution; assay type: cell-based; conditions: Table 7
Protocol: as §1, §2

S. scuri = assay: MIC, broth dilution; assay type: cell-based; conditions: isolate from a healthy dairy cow
Protocol: as §1, §2

[5] = tested on: Streptococcus dysagalactiae; assay: MIC, broth dilution; assay type: cell-based; conditions: clinical isolate
Protocol: as §1, §2

Pasteurella multocida = assay: MIC, broth dilution; assay type: cell-based
Protocol: as §1, §2

[6] = tested on: Pseudomonas aeruginosa ATCC 27853; assay: MIC, broth dilution; assay type: cell-based
Protocol: as §1, §2

S. auricularis = assay: MIC, broth dilution; assay type: cell-based; conditions: isolate from a healthy dairy cow
Protocol: as §1, §2

Mycoplasma bovis = assay: MIC, broth dilution; assay type: cell-based
Protocol: as §1, §2

TVGGLVKWILKTVKKFA-NH2 [STIP3-29, TVGGLVKWILKTVKKFA-NH2]
MIC (μg/mL) M. haemolytica [1]: 25 µg/mL | treated bacteria killed (panel of 7 MRSA strains; 12.5 μg/mL (2-fold MIC), within the first 4 hours, panel of 7 MRSA strains): ~99% | antibiotic effect (panel of 7 MRSA strains; in words): bactericidal | MIC (Streptococcus canis): 6.25 µg/mL | MIC [2]: 3.13 µg/mL | MIC (S. equorum): 3.13 µg/mL | MIC (Streptococcus agalactiae): 3.13 µg/mL | MIC (S. epidermidis): 3.13 µg/mL | MIC (μg/ml) (Klebsiella pneumoniae): > (> indicates no inhibition up to 50 μg/ml) | MIC (Streptococcus equi): 3.13 µg/mL | MIC [3]: 12.5 µg/mL | MIC [4]: 6.25 µg/mL | MIC (S. scuri): 3.13 µg/mL | MIC [5]: 3.13 µg/mL | MIC (μg/ml) (Pasteurella multocida): > (> indicates no inhibition up to 50 μg/ml) | MIC (μg/ml) [6]: > (> indicates no inhibition up to 50 μg/ml) | MIC (S. auricularis): 1.56 µg/mL | MIC (μg/ml) (Mycoplasma bovis): > (> indicates no inhibition up to 50 μg/ml)

— patent US12370235B2, “Synthetic, non-natural antimicrobial peptides inspired by Staphylococcus auricularis delta toxin” (University of Saskatchewan, priority 2021, dated 2025)
